Test results published in publication PMC8508903, “Novel Dipyridinium Lipophile-Based Ionic Liquids Tethering Hydrazone Linkage: Design, Synthesis and Antitumorigenic Study” (International Journal of Molecular Sciences, 2021).
Counter-ions that a name gives are not always drawn.

Tests used:
A549 lung cancer cells = assay: MTT cell viability assay, A549; format: cell-based, human; details: mean of three independent experiments (N = 9)
Method: (§1) To evaluate the effect of the examined series on the viability of different lung cancer cells, MTT assay was conducted after exposing A549, H1299, and H661 cell lines to increasing concentrations of each compound for 48 h. […] Table 2 and Supplementary Figure S92 (see Supplementary Materials) show the 50% inhibitory concentration (IC50) values for the compounds under investigation in A549, H1299, and H661 lung cancer cells.
(§2) The human lung cancer cell lines A549, H1299 and H661 and the normal cells dermal fibroblasts were obtained from the American Type Culture Collection ATCC. Cells were cultured as a monolayer at seeding density of 8 × 10^3 cells per well in high glucose Dulbecco’s modified eagle medium (DMEM) (Invitrogen, USA), as previously described. The in vitro assessment of the antitumorigenic activities related to the studied compounds was undertaken using the 3-(4,5-dimethylthiazol-2yl)-2,5-diphenyl tetrazolium bromide (MTT) colorimetric assay, as previously reported. The compounds under investigation were tested in three triplicates of each concentration in three independent assays for a total of nine replicates. Both positive (cisplatin) and negative (untreated culture) controls were applied under the same experimental conditions. Cells were cultured for 48 h at 37 °C in a 5% CO2 incubator. Afterwards, MTT assay was carried out where viable cell count was determined based on the amount of formazan crystals, as verified by the absorbance at 490 nm.
(§3) Data was analyzed by Graphpad Prism software (Graphpad Software Inc. Jolla, CA, USA) for the determination of IC50 value. All data were expressed as the average of triplicate experiments.

human dermal fibroblasts = assay: MTT cell viability assay, normal dermal fibroblasts; format: cell-based; details: 48 h, noncancerous human dermal fibroblasts
Method: as §1, §2, §3

H1299 lung cancer cells = assay: MTT cell viability assay, H1299; format: cell-based, human; details: mean of three independent experiments (N = 9)
Method: as §1, §2, §3

H661 lung cancer cells = assay: MTT cell viability assay, H661; format: cell-based, human; details: mean of three independent experiments (N = 9)
Method: as §1, §2, §3

CCCCCCCCCCCCCCCCCC[n+]1ccc(C(=O)NN=Cc2ccc[n+](CCCCCCCCCCCCCCCCCC)c2)cc1 [Compound 35, 1-Octadecyl-3-((2-(1-octadecylpyridin-1-ium-4-carbonyl)hydrazono)methyl)pyridin-1-ium Tetrafluoroborate]
IC50 (A549 lung cancer cells; 48 h): 421 µM
IC50 (human dermal fibroblasts): > 1000 µM
IC50 (H1299 lung cancer cells; 48 h): 399 µM
IC50 (H661 lung cancer cells; 48 h): 382 µM

N.N.[Cl][Pt][Cl] [Cisplatin, cisplatin, reference compound]
IC50 (A549 lung cancer cells; 48 h): 23 µM
IC50 (human dermal fibroblasts): > 100 µM
IC50 (H1299 lung cancer cells; 48 h): 18 µM
IC50 (H661 lung cancer cells; 48 h): 32 µM

CCCCCCCCCCCCCC[n+]1ccc(C(=O)NN=Cc2ccc[n+](CCCCCCCCCCCCCC)c2)cc1 [Compound 29, 1-Tetradecyl-3-((2-(1-tetradecylpyridin-1-ium-4-carbonyl)hydrazono)methyl)pyridin-1-ium Tetrafluoroborate]
IC50 (A549 lung cancer cells; Homo sapiens, A549, 48 h): 42.1 µM
IC50 (human dermal fibroblasts; Homo sapiens, Fibroblast): > 300 µM
IC50 (H1299 lung cancer cells; Homo sapiens, NCI-H1299, 48 h): 44.6 µM
IC50 (H661 lung cancer cells; Homo sapiens, NCI-H661, 48 h): 46.8 µM

CCCCCCCCC[n+]1ccc(C(=O)NN=Cc2ccc[n+](CCCCCCCCC)c2)cc1 [Compound 20, 1-Nonyl-3-((2-(1-nonylpyridin-1-ium-4-carbonyl)hydrazono)methyl)pyridin-1-ium Tetrafluoroborate]
IC50 (A549 lung cancer cells; Homo sapiens, A549, 48 h): 31.4 µM
IC50 (human dermal fibroblasts; Homo sapiens, Fibroblast): > 300 µM
IC50 (H1299 lung cancer cells; 48 h): 32.6 µM
IC50 (H661 lung cancer cells; 48 h): 33 µM

CCCCCCCCCCCCCC[n+]1ccc(C(=O)NN=Cc2ccc[n+](CCCCCCCCCCCCCC)c2)cc1 [Compound 13, 1-Tetradecyl-3-((2-(1-tetradecylpyridin-1-ium-4-carbonyl)hydrazono)methyl)pyridin-1-ium Iodide]
IC50 (A549 lung cancer cells; 48 h): 36.8 µM
IC50 (human dermal fibroblasts): > 300 µM
IC50 (H1299 lung cancer cells; 48 h): 38 µM
IC50 (H661 lung cancer cells; 48 h): 38.2 µM

CCCCCCCCCCCCCCCC[n+]1ccc(C(=O)NN=Cc2ccc[n+](CCCCCCCCCCCCCCCC)c2)cc1 [Compound 33, 1-Hexadecyl-3-((2-(1-hexadecylpyridin-1-ium-4-carbonyl)hydrazono)methyl)pyridin-1-ium Trifluoroacetate]
IC50 (A549 lung cancer cells; 48 h): 87.8 µM
IC50 (human dermal fibroblasts): > 300 µM
IC50 (H1299 lung cancer cells; 48 h): 92.3 µM
IC50 (H661 lung cancer cells; 48 h): 100 µM

CCCCCCCCCCCCCCCCCC[n+]1ccc(C(=O)NN=Cc2ccc[n+](CCCCCCCCCCCCCCCCCC)c2)cc1.[I-].[I-] [Compound 15, 1-Octadecyl-3-((2-(1-octadecylpyridin-1-ium-4-carbonyl)hydrazono)methyl)pyridin-1-ium Iodide]
IC50 (A549 lung cancer cells; 48 h): 26.2 µM
IC50 (human dermal fibroblasts): > 300 µM
IC50 (H1299 lung cancer cells; 48 h): 22.1 µM
melting point: 192 to 193 °C
IC50 (H661 lung cancer cells; 48 h): 26.1 µM

CCCCCCCC[n+]1ccc(C(=O)N/N=C/c2ccc[n+](CCCCCCCC)c2)cc1 (as salt: phosphate) [Compound 16, 1-Octyl-3-((2-(1-octylpyridin-1-ium-4-carbonyl)hydrazono)methyl)pyridin-1-ium Hexafluorophosphate]
melting point: 58 to 59 °C

CCCCCCCCCCCCCCCCCC[n+]1ccc(C(=O)NN=Cc2ccc[n+](CCCCCCCCCCCCCCCCCC)c2)cc1 [Compound 36, 1-Octadecyl-3-((2-(1-octadecylpyridin-1-ium-4-carbonyl)hydrazono)methyl)pyridin-1-ium Trifluoroacetate]
IC50 (A549 lung cancer cells; 48 h): 920 µM
IC50 (human dermal fibroblasts): > 1000 µM
IC50 (H1299 lung cancer cells; 48 h): 947 µM
IC50 (H661 lung cancer cells; 48 h): 904 µM

CCCCCCCC[n+]1ccc(C(=O)NN=Cc2ccc[n+](CCCCCCCC)c2)cc1.[I-].[I-] [Compound 9, 1-Octyl-3-((2-(1-octylpyridin-1-ium-4-carbonyl)hydrazono)methyl)pyridin-1-ium Iodide]
IC50 (A549 lung cancer cells; 48 h): 75.3 µM
IC50 (human dermal fibroblasts): > 300 µM
IC50 (H1299 lung cancer cells; 48 h): 64.3 µM
melting point: 82 to 84 °C
IC50 (H661 lung cancer cells; 48 h): 74.2 µM

CCCCCCCCCCCCCC[n+]1ccc(C(=O)NN=Cc2ccc[n+](CCCCCCCCCCCCCC)c2)cc1 [Compound 30, 1-Tetradecyl-3-((2-(1-tetradecylpyridin-1-ium-4-carbonyl)hydrazono)methyl)pyridin-1-ium Trifluoroacetate]
IC50 (A549 lung cancer cells; 48 h): 38.6 µM
IC50 (human dermal fibroblasts): > 300 µM
IC50 (H1299 lung cancer cells; 48 h): 38.5 µM
IC50 (H661 lung cancer cells; 48 h): 41.9 µM

CCCCCCCCCCCCCCCC[n+]1ccc(C(=O)NN=Cc2ccc[n+](CCCCCCCCCCCCCCCC)c2)cc1 [Compound 14, 1-Hexadecyl-3-((2-(1-hexadecylpyridin-1-ium-4-carbonyl)hydrazono)methyl)pyridin-1-ium Iodide]
IC50 (A549 lung cancer cells; 48 h): 7.11 µM
IC50 (human dermal fibroblasts): > 300 µM
IC50 (H1299 lung cancer cells; 48 h): 10.1 µM
IC50 (H661 lung cancer cells; 48 h): 11.2 µM

CCCCCCCCCCCC[n+]1ccc(C(=O)NN=Cc2ccc[n+](CCCCCCCCCCCC)c2)cc1 [Compound 27, 1-Dodecyl-3-((2-(1-dodecylpyridin-1-ium-4-carbonyl)hydrazono)methyl)pyridin-1-ium Trifluoroacetate]
IC50 (A549 lung cancer cells; Homo sapiens, A549, 48 h): 14.3 µM
IC50 (human dermal fibroblasts; Homo sapiens, Fibroblast): > 300 µM
IC50 (H1299 lung cancer cells; 48 h): 12.1 µM
IC50 (H661 lung cancer cells; 48 h): 10.5 µM

CCCCCCCC[n+]1ccc(C(=O)NN=Cc2ccc[n+](CCCCCCCC)c2)cc1 [Compound 17, 1-Octyl-3-((2-(1-octylpyridin-1-ium-4-carbonyl)hydrazono)methyl)pyridin-1-ium Tetrafluoroborate]
IC50 (A549 lung cancer cells; Homo sapiens, A549, 48 h): 69.1 µM
IC50 (human dermal fibroblasts; Homo sapiens, Fibroblast): > 300 µM
IC50 (H1299 lung cancer cells; Homo sapiens, NCI-H1299, 48 h): 66 µM
IC50 (H661 lung cancer cells; Homo sapiens, NCI-H661, 48 h): 61.2 µM

CCCCCCCCCCCCCCCC[n+]1ccc(C(=O)NN=Cc2ccc[n+](CCCCCCCCCCCCCCCC)c2)cc1 [Compound 32, 1-Hexadecyl-3-((2-(1-hexadecylpyridin-1-ium-4-carbonyl)hydrazono)methyl)pyridin-1-ium Tetrafluoroborate]
IC50 (A549 lung cancer cells; 48 h): 114 µM
IC50 (human dermal fibroblasts; Homo sapiens, Fibroblast): > 300 µM
IC50 (H1299 lung cancer cells; 48 h): 108 µM
IC50 (H661 lung cancer cells; 48 h): 104 µM

CCCCCCCC[n+]1ccc(C(=O)NN=Cc2ccc[n+](CCCCCCCC)c2)cc1 [Compound 18, 1-Octyl-3-((2-(1-octylpyridin-1-ium-4-carbonyl)hydrazono)methyl)pyridin-1-ium Trifluoroacetate]
IC50 (A549 lung cancer cells; 48 h): 78.5 µM
IC50 (human dermal fibroblasts): > 300 µM
IC50 (H1299 lung cancer cells; 48 h): 71 µM
IC50 (H661 lung cancer cells; 48 h): 74.5 µM

CCCCCCCCCC[n+]1ccc(C(=O)NN=Cc2ccc[n+](CCCCCCCCCC)c2)cc1 [Compound 24, 1-Decyl-3-((2-(1-decylpyridin-1-ium-4-carbonyl)hydrazono)methyl)pyridin-1-ium Trifluoroacetate]
IC50 (A549 lung cancer cells; 48 h): 20 µM
IC50 (human dermal fibroblasts): > 300 µM
IC50 (H1299 lung cancer cells; 48 h): 19 µM
IC50 (H661 lung cancer cells; 48 h): 18.1 µM

CCCCCCCCCCCC[n+]1ccc(C(=O)N/N=C/c2ccc[n+](CCCCCCCCCCCC)c2)cc1 [Compound 26, 11-Dodecyl-3-((2-(1-dodecylpyridin-1-ium-4-carbonyl)hydrazono)methyl)pyridin-1-ium Tetrafluoroborate]
IC50 (A549 lung cancer cells; Homo sapiens, A549, 48 h): 44 µM
IC50 (human dermal fibroblasts; Homo sapiens, Fibroblast): > 300 µM
IC50 (H1299 lung cancer cells; Homo sapiens, NCI-H1299, 48 h): 39.3 µM
IC50 (H661 lung cancer cells; Homo sapiens, NCI-H661, 48 h): 40.4 µM

CCCCCCCCC[n+]1ccc(C(=O)NN=Cc2ccc[n+](CCCCCCCCC)c2)cc1 [Compound 21, 1-Nonyl-3-((2-(1-nonylpyridin-1-ium-4-carbonyl)hydrazono)methyl)pyridin-1-ium Trifluoroacetate]
IC50 (A549 lung cancer cells; 48 h): 33.5 µM
IC50 (human dermal fibroblasts): > 300 µM
IC50 (H1299 lung cancer cells; 48 h): 28 µM
IC50 (H661 lung cancer cells; 48 h): 19.4 µM

CCCCCCCCCC[n+]1ccc(C(=O)N/N=C/c2ccc[n+](CCCCCCCCCC)c2)cc1 (as salt: phosphate) [Compound 22, 1-Decyl-3-((2-(1-decylpyridin-1-ium-4-carbonyl)hydrazono)methyl)pyridin-1-ium Hexafluorophosphate]
melting point: 42 to 44 °C
